This is an account of results in US20090041862A1, “Detecting disease association with aberrant glycogen synthase kinase 3beta expression” (priority 2004, published 2009).

The subject of one experiment is GSKΔexon9+11. The experiment is described as follows: Inhibition of endogenous Tau [pS396] phosphorylation in COS-7 cells transfected with GSKΔexon9+11 cDNA (ELISA). The class given is cell-based, human. The procedure:
Lymphocytes (as described in Example 3) or transfected cells were lysed in 1× Lysis buffer (50 mM Tris.HCl (pH 7.4), 150 mM NaCl, 1 mM PMSF, 1× complete cocktail protease inhibitor (Boehringer Mannheim) and 0.05% Triton X-100. Approximately 2-25 μg of total protein was used to assay for total Tau or Tau phosphorylated at serine residue 396 using the Human Tau or Human Tau [pS396] ELISA kit respectively (Biosource International, CA, USA).
COS-7 cells plated onto 12 well plates at concentration of 1×10^5 cells/well and allowed to recover for 24 hours. Each well was transfected with either the GSKΔexon9 or GSKΔexon9+11 cDNA constructs (as described in Example 4) using Lipofectamine 2000.

In experiment [1] the target is Tau (endogenous Tau protein in COS-7 cells). The experiment can be described thus: cell-based or functional assay.

Turning to `Cn1sc(=O)n(Cc2ccccc2)c1=O` [TDZD8], the “increase in sensitivity of GSKΔexon9+11 compared with GSKΔexon9” value with GSKΔexon9+11 (ratio of IC50 values, COS-7 cells) was 2 fold. Moreover, the “suppressing the level of tau phosphorylation in a cell expressing GSK-3β lacking exon 9 and exon 11 vs lacking exon 9” value in the experiment on GSKΔexon9+11 (result in words) is “at a level greater than observed in a cell expressing GSK-3β lacking exon 9”.

“GSK-3β lacking exon 9 and exon 11 (GSKΔexon9+11 isoform) (from UniProt P49841 1-420)” returned a levels of Tau [pSer396] by ELISA in COS-7 cells transfected with GSK-3β isoform cDNAs in experiment [1] of 2.5 fold.
